Reference: paper PMC10456296, “Trichoderols B-G, Six New Lipids from the Marine Algicolous Fungus Trichoderma sp. Z43” (Marine Drugs, 2023)
In brackets after ≈: the same amount, converted by molar mass. Read-outs that look alike come from different tables or passages of the source.

Key:
Heterosigma akashiwo = assay: Antimicroalgal activity, inhibition of marine phytoplankton; details: for IC50: Heterosigma akashiwo, 24 h, read-out: IC50 Heterosigma akashiwo
Glomerella cingulata = assay: Antifungal activity, microdilution method in 96-well plate; format: cell-based; details: Colletotrichum gloeosporioides; microdilution in PDB, 28 °C, 48 h
Amphidinium carterae = assay: Antimicroalgal activity, inhibition of marine phytoplankton; details: for IC50: Amphidinium carterae, 24 h, read-out: IC50 Amphidinium carterae
[1] = test system: Heterocapsa circularisquama; assay: as above; details: for IC50: Heterocapsa circularisquama, 24 h, read-out: IC50 Heterocapsa circularisquama
Prorocentrum donghaiense = assay: as above; details: for IC50: Prorocentrum donghaiense, 24 h, read-out: IC50 Prorocentrum donghaiense
Gaeumannomyces graminis = assay: Antifungal activity, microdilution method in 96-well plate; format: cell-based; details: 48 h, read-out: MIC Gaeumannomyces graminis
Fusarium graminearum = assay: microbe, parasite or virus in culture; format: cell-based; details: 48 h, read-out: MIC Fusarium graminearum
[2] = test system: three phytopathogenic fungi (Fusarium graminearum, Gaeumannomyces graminis, and Glomerella cingulata); assay: organism not typed; format: cell-based; details: for MIC: read-out: MIC against the three phytopathogenic fungi tested, summary over three fungi; for antifungal activity (in words): summary over three fungi
Artemia salina = assay: Brine shrimp lethal activity; format: in vivo; details: 24 h
Experimental: The inhibition of the brine shrimp Artermia salina was assayed according to the procedures described in our previous report. In brief, brine shrimp eggs were left to hatch in sea water for 48 h at 25 °C under natural light. […] The lethality was observed after 24 h of cultivation.

Row | Structure (SMILES) | IC50 (Heterosigma akashiwo) [µg/mL] | MIC (Glomerella cingulata) [µg/mL] | IC50 (Amphidinium carterae) [µg/mL] | IC50 [1] [µg/mL] | IC50 (Prorocentrum donghaiense) [µg/mL] | MIC (Gaeumannomyces graminis) [µg/mL] | MIC (Fusarium graminearum) [µg/mL] | MIC [2] [µg/mL] | antifungal activity (in words) [2] | MIC (Gaeumannomyces graminis; microdilution in PDB, 28 °C) [µg/mL] | IC50 Heterosigma akashiwo (Heterosigma akashiwo; live cells counted after 24 h) [µg/mL] | Lethal Rate (at 100 μg/mL) Artemia salina (Artemia salina) [%] | IC50 Amphidinium carterae (Amphidinium carterae; live cells counted after 24 h) [µg/mL] | IC50 Heterocapsa circularisquama ([1]; live cells counted after 24 h) [µg/mL] | IC50 Prorocentrum donghaiense (Prorocentrum donghaiense; live cells counted after 24 h) [µg/mL]
1 | CC=CCCC1(O)OC(C(O)C=CC)CC1O (stereo not drawn) [Compound 1, Trichoderol B] | 28 (≈ 116 µM) | 64 (≈ 264 µM) | 15 (≈ 61.9 µM) | 24 (≈ 99 µM) | 22 (≈ 90.8 µM) | 256 (≈ 1060 µM) | 256 (≈ 1060 µM) | 64 to 256 (≈ 264 to 1060 µM) | weak antifungal activity |  |  |  |  |  | 
2 | C/C=C/CCC(O)C(O)/C=C/C=C/C(O)CO (stereo not drawn) [Compound 2, (3E,5E,11E)-trideca-3,5,11-trien-1,2,7,8-tetraol] | 43 (≈ 177 µM) | > 256 | 61 (≈ 252 µM) | > 100 | 37 (≈ 153 µM) |  | > 256 |  |  | > 256 |  |  |  |  | 
3 | C=CCC(O)/C=C/C(O)C(O)CC/C=C/C (stereo not drawn) [Compound 3, (5E,11E)-trideca-1,5,11-trien-4,7,8-triol] | > 100 | > 256 | 66 (≈ 292 µM) | 78 (≈ 345 µM) | > 100 |  | > 256 |  |  | > 256 |  |  |  |  | 
4 | C/C=C/CCC(O)C(O)C/C=C/C(O)C(C)O (stereo not drawn) [Compound 4, (4E,11E)-trideca-4,11-diene-2,3,7,8-tetraol] | 53 (≈ 217 µM) | 128 (≈ 524 µM) | > 100 | > 100 | 42 (≈ 172 µM) |  | > 256 | ≥ 64 | weak antifungal activity | 256 (≈ 1050 µM) |  |  |  |  | 
5 | C/C=C/CCC(O)C(O)C/C=C/CC(C)O (stereo not drawn) [Compound 5, (4E,11E)-trideca-4,11-dien-2,7,8-triol] | > 100 | > 256 | 50 (≈ 219 µM) | 68 (≈ 298 µM) | > 100 |  | > 256 |  |  | > 256 |  |  |  |  | 
6 | C/C=C/CCC(O)C(O)C/C=C/CO (stereo not drawn) [Compound 6, (2E,9E)-undeca-2,9-dien-1,5,6-triol] | 82 (≈ 409 µM) | > 256 | 44 (≈ 220 µM) | > 100 | > 100 |  | > 256 |  |  | > 256 |  |  |  |  | 
7 | C/C=C/CC[C@@H](O)[C@@H](O)C/C=C/[C@@H](O)[C@H](C)O [Compound 7, triharzianin B] | 49 (≈ 201 µM) | 128 (≈ 524 µM) | > 100 | > 100 | 30 (≈ 123 µM) |  | > 256 | ≥ 64 | weak antifungal activity | 256 (≈ 1050 µM) |  |  |  |  | 
8 | [K+].[K+].[O]=[Cr](=[O])([O-])[O][Cr](=[O])(=[O])[O-] [Compound K2Cr2O7, K2Cr2O7, reference compound] |  |  |  |  |  |  |  |  |  |  | 0.8 | 100 | 1.2 | 1.0 | 1.4
9 | C[C@@H]1[C@H](O)[C@@H](C)/C=C/C=C/C=C/C=C/C=C/C=C/C=C/[C@H](O[C@@H]2O[C@H](C)[C@@H](O)[C@H](N)[C@@H]2O)C[C@@H]2O[C@](O)(C[C@@H](O)C[C@@H](O)[C@H](O)CC[C@@H](O)C[C@@H](O)CC(=O)O[C@H]1C)C[C@H](O)[C@H]2C(=O)O [amphotericin B, reference compound] |  | 1 (≈ 1.08 µM) |  |  |  |  | 2 (≈ 2.16 µM) |  |  | 2 (≈ 2.16 µM) |  |  |  |  | 
